In US12268683B2, “Compounds and methods for synergistic activation of M channels” (THE REGENTS OF THE UNIVERSITY OF CALIFORNIA, priority 2018, dated 2025):

What was measured:
[1] = biological target: KCNQ3/KCNQ5 (Homo sapiens, UniProt O43525+Q9NR82); test: TEVC of KCNQ3/KCNQ5 channels; format: cell-based; conditions: similar potency
From the text: (§1) As previously described (12), we generated cRNA transcripts encoding human KCNA1, KCNE1, KCNE2, KCNE3, KCNQ1, KCNQ2, KCNQ3, KCNQ4 or KCNQ5 by in vitro transcription using the T7 polymerase mMessage mMachine kit (Thermo Fisher Scientific), after vector linearization, from cDNA sub-cloned into plasmids incorporating Xenopus laevis β-globin 5′ and 3′ UTRs flanking the coding region to enhance translation and cRNA stability. We quantified cRNA by spectrophotometry. We generated mutant KCNQ2 and KCNQ3 cDNAs by site-directed mutagenesis with a QuikChange kit (Stratagene, San Diego, Calif.) and prepared the cRNAs as above. We injected defolliculated stage V and VI Xenopus laevis oocytes (Ecocyte Bioscience, Austin, Tex. and Xenoocyte, Dexter, Mich., US) with KCNE and/or KCNQ cRNAs (5-20 ng). […]
(§2) We performed TEVC at room temperature using an OC-725C amplifier (Warner Instruments, Hamden, Conn.) and pClamp10 software (Molecular Devices, Sunnyvale, Calif.) 2-5 days after cRNA injection as described in the section above. […] We recorded currents in response to voltage pulses between −120 or −80 mV and +40 mV at 20 mV intervals from a holding potential of −80 mV, to yield current-voltage relationships, current magnitude, and for quantifying activation rate. We analyzed data using Clampfit (Molecular Devices) and Graphpad Prism software (GraphPad, San Diego, Calif., USA); values are stated as mean±SEM. […]

[2] = system: bacteria; conditions: read-out: bactericidal activity EC50; cited from earlier work
[3] = biological target: KCNQ1-R243A (Homo sapiens, UniProt P51787, R243A); test: TEVC of R243A KCNQ1 channels; format: cell-based
From the text: as §1, §2

[4] = biological target: KCNQ2-R213A/KCNQ3 (Homo sapiens, UniProt O43525+O43526, R213A); test: TEVC of KCNQ2-R213A/KCNQ3 channels; format: cell-based
From the text: as §1, §2

[5] = rats fed Mallotus philippensis extract; cited from earlier work

| Structure (SMILES) | efficacy on KCNQ3/KCNQ5, lower than on KCNQ5 [1] [%] | EC50 [2] [µM] | effect of R243A mutation on (E)-2-dodecenal action in KCNQ1 [3] | effect on KCNQ2-R213A/KCNQ3 (in words) [4] | oral bioavailability [5] [%] | plasma concentration [5] |
| --- | --- | --- | --- | --- | --- | --- |
| CCCCCCCCC/C=C/C=O [(E)-2-dodecenal] | ~30 | > 30 | slightly increased (E)-2-dodecenal efficacy | completely insensitive |  |  |
| CC(=O)c1c(O)c(C)c(O)c(Cc2c(O)c3c(c(C(=O)/C=C/c4ccccc4)c2O)OC(C)(C)C=C3)c1O [MTX, mallotoxin] |  |  |  |  | > 20 | exceeded 2 μg/ml |
